Experiment: Oil solubility test in benzyl benzoate (HPLC)
Type: physicochemical
Settings: organic solvent or mixture, thermodynamic from solid, 25° C., shaken 2 h
Method: The solubility test was performed by quantitative analysis using an external standard method of high-performance liquid chromatography.
Reference sample solution: 10 mg of reference sample was weighed, placed in a 20 mL volumetric flask, diluted to the scale with 80% acetonitrile, and shaken uniformly.
Test sample solution: an appropriate amount of sample was dissolved in benzyl benzoate to obtain a saturated solution. The mixture was placed in a shaker and shaken at 25° C. and 800 rpm for 2 h. The sample solution was filtered, and 100 μL of filtrate was added to a 10 mL volumetric flask, diluted to the scale with 80% acetonitrile, and shaken uniformly.

solubility at 2 h | Structure (SMILES)
> 200 mg/mL | CCCCCCCCCCCC(=O)OCn1c(=O)cc(F)c2ccc(CCN3CCN(c4cc(F)cc5sccc45)CC3)cc21 [Compound 38, (4-Fluoro-7-(2-(4-(6-fluorobenzo[b]thiophen-4-yl)piperazin-1-yl)ethyl)-2-oxoquinolin-1(2H)-yl)methyl dodecanoate]
> 200 mg/mL | CCCCCCCCCCCC(=O)OCN1C(=O)CC(C)(C)c2ccc(CCN3CCN(c4cc(F)cc5sccc45)CC3)cc21 [Compound 43, (7-(2-(4-(6-Fluorobenzo[b]thiophen-4-yl)piperazin-1-yl)ethyl)-4,4-dimethyl-2-oxo-3,4-dihydroquinolin-1(2H)-yl)methyl dodecanoate]
> 200 mg/mL | [2H]c1cc(=O)n(COC(=O)CCCCCCCCCCC)c2cc(CCN3CCN(c4cc(F)cc5sccc45)CC3)ccc12 [Compound 51, (7-(2-(4-(6-Fluorobenzo[b]thiophen-4-yl)piperazin-1-yl)ethyl)-2-oxoquinolin-1(2H)-yl-4-d)methyl dodecanoate]
> 200 mg/mL | CCCCCCCC(=O)OCN1C(=O)CCc2ccc(CCN3CCN(c4cc(F)cc5sccc45)CC3)cc21 [Compound 61, (7-(2-(4-(6-Fluorobenzo[b]thiophen-4-yl)piperazin-1-yl)ethyl)-2-oxo-3,4-dihydroquinolin-1(2H)-yl) methyl octanoate]
> 200 mg/mL | CCCCCCCCC(=O)OCN1C(=O)CCc2ccc(CCN3CCN(c4cc(F)cc5sccc45)CC3)cc21 [Compound 62, (7-(2-(4-(6-Fluorobenzo[b]thiophen-4-yl)piperazin-1-yl)ethyl)-2-oxo-3,4-dihydroquinolin-1(2H)-yl) methyl nonanoate]
> 200 mg/mL | CCCCCCCCCCC(=O)OCN1C(=O)CCc2ccc(CCN3CCN(c4cc(F)cc5sccc45)CC3)cc21 [Compound 63, (7-(2-(4-(6-Fluorobenzo[b]thiophen-4-yl)piperazin-1-yl)ethyl)-2-oxo-3,4-dihydroquinolin-1(2H)-yl) methyl undecanoate]
> 200 mg/mL | CCCCCCCCCCCCC(=O)OCN1C(=O)CCc2ccc(CCN3CCN(c4cc(F)cc5sccc45)CC3)cc21 [Compound 64, (7-(2-(4-(6-Fluorobenzo[b]thiophen-4-yl)piperazin-1-yl)ethyl)-2-oxo-3,4-dihydroquinolin-1(2H)-yl) methyl tridecanoate]
> 200 mg/mL | CCCCCCCCCCCCCC(=O)OCN1C(=O)CCc2ccc(CCN3CCN(c4cc(F)cc5sccc45)CC3)cc21 [Compound 65, (7-(2-(4-(6-Fluorobenzo[b]thiophen-4-yl)piperazin-1-yl)ethyl)-2-oxo-3,4-dihydroquinolin-1(2H)-yl) methyl tetradecanoate]
> 200 mg/mL | CCCCCCCCCCCCCCC(=O)OCN1C(=O)CCc2ccc(CCN3CCN(c4cc(F)cc5sccc45)CC3)cc21 [Compound 66, (7-(2-(4-(6-Fluorobenzo[b]thiophen-4-yl)piperazin-1-yl)ethyl)-2-oxo-3,4-dihydroquinolin-1(2H)-yl) methyl pentadecanoate]
> 200 mg/mL | CCCCCCCCCCCCCCCCC(=O)OCN1C(=O)CCc2ccc(CCN3CCN(c4cc(F)cc5sccc45)CC3)cc21 [Compound 67, (7-(2-(4-(6-Fluorobenzo[b]thiophen-4-yl)piperazin-1-yl)ethyl)-2-oxo-3,4-dihydroquinolin-1(2H)-yl) methyl heptadecanoate]
> 200 mg/mL | CCCCCCCCCCCCCCCCCC(=O)OCN1C(=O)CCc2ccc(CCN3CCN(c4cc(F)cc5sccc45)CC3)cc21 [Compound 68, (7-(2-(4-(6-Fluorobenzo[b]thiophen-4-yl)piperazin-1-yl)ethyl)-2-oxo-3,4-dihydroquinolin-1(2H)-yl) methyl stearate]
> 200 mg/mL | CCCCCCCCCCCCCCCCCCCC(=O)OCN1C(=O)CCc2ccc(CCN3CCN(c4cc(F)cc5sccc45)CC3)cc21 [Compound 69, (7-(2-(4-(6-Fluorobenzo[b]thiophen-4-yl)piperazin-1-yl)ethyl)-2-oxo-3,4-dihydroquinolin-1(2H)-yl) methyl icosanoate]
> 200 mg/mL | CCCCCCCCCCNC(=O)OCN1C(=O)CCc2ccc(CCN3CCN(c4cc(F)cc5sccc45)CC3)cc21 [Compound 71, (7-(2-(4-(6-Fluorobenzo[b]thiophen-4-yl)piperazin-1-yl)ethyl)-2-oxo-3,4-dihydroquinolin-1(2H)-yl) methyl decylcarbamate]
> 200 mg/mL | C=CCCCCCCCCC(=O)OCN1C(=O)CCc2ccc(CCN3CCN(c4cc(F)cc5sccc45)CC3)cc21 [Compound 72, (7-(2-(4-(6-Fluorobenzo[b]thiophen-4-yl)piperazin-1-yl)ethyl)-2-oxo-3,4-dihydroquinolin-1(2H)-yl) methyl undec-10-enoate]
> 200 mg/mL | CCCCCCCC/C=C\CCCCCCCC(=O)OCN1C(=O)CCc2ccc(CCN3CCN(c4cc(F)cc5sccc45)CC3)cc21 [Compound 73, (7-(2-(4-(6-Fluorobenzo[b]thiophen-4-yl)piperazin-1-yl)ethyl)-2-oxo-3,4-dihydroquinolin-1(2H)-yl) methyl oleate]
> 200 mg/mL | CCCCCCCCCCCCCCCCCCCCCC(=O)OCN1C(=O)CCc2ccc(CCN3CCN(c4cc(F)cc5sccc45)CC3)cc21 [Compound 74, (7-(2-(4-(6-fluorobenzo[b]thiophen-4-yl)piperazin-1-yl)ethyl)-2-oxo-3,4-dihydroquinolin-1(2H)-yl)methyl docosanoate]
> 200 mg/mL | CCCCCCCCCCCCCCCCCCCCCCCC(=O)OCN1C(=O)CCc2ccc(CCN3CCN(c4cc(F)cc5sccc45)CC3)cc21 [Compound 75, (7-(2-(4-(6-Fluorobenzo[b]thiophen-4-yl)piperazin-1-yl)ethyl)-2-oxo-3,4-dihydroquinolin-1(2H)-yl) methyl tetracosanoate]
> 200 mg/mL | CCCCCCCCCCCCCCCCCCCCCCCCCCC(=O)OCN1C(=O)CCc2ccc(CCN3CCN(c4cc(F)cc5sccc45)CC3)cc21 [Compound 76, (7-(2-(4-(6-fluorobenzo[b]thiophen-4-yl)piperazin-1-yl)ethyl)-2-oxo-3,4-dihydroquinolin-1(2H)-yl)methyl heptacosanoate]
> 200 mg/mL | CCCCCCCC/C=C\CCCCCCCC(=O)OCn1c(=O)ccc2ccc(CCN3CCN(c4cc(F)cc5sccc45)CC3)cc21 [Compound 77, (7-(2-(4-(6-Fluorobenzo[b]thiophen-4-yl)piperazin-1-yl)ethyl)-2-oxoquinolin-1(2H)-yl)methyl oleate]
> 200 mg/mL | CCCCC(C)(C)C(=O)OCN1C(=O)CCc2ccc(CCN3CCN(c4cc(F)cc5sccc45)CC3)cc21 [Compound 108, (7-(2-(4-(6-Fluorobenzo[b]thiophen-4-yl)piperazin-1-yl)ethyl)-2-oxo-3,4-dihydroquinolin-1(2H)-yl) methyl 2,2-dimethylhexanoate]
> 200 mg/mL | CCCCCC(C)C(=O)OCN1C(=O)CCc2ccc(CCN3CCN(c4cc(F)cc5sccc45)CC3)cc21 (centres unmarked) [Compound 110, (7-(2-(4-(6-Fluorobenzo[b]thiophen-4-yl)piperazin-1-yl)ethyl)-2-oxo-3,4-dihydroquinolin-1(2H)-yl) methyl 2-methylheptanoate]
> 200 mg/mL | CCCCCC(CCCCC)C(=O)OCN1C(=O)CCc2ccc(CCN3CCN(c4cc(F)cc5sccc45)CC3)cc21 [Compound 112, (7-(2-(4-(6-Fluorobenzo[b]thiophen-4-yl)piperazin-1-yl)ethyl)-2-oxo-3,4-dihydroquinolin-1(2H)-yl) methyl 2-pentylheptanoate]
> 200 mg/mL | CCCCCC(CCCCC)C(=O)OCn1c(=O)ccc2ccc(CCN3CCN(c4cc(F)cc5sccc45)CC3)cc21 [Compound 113, (7-(2-(4-(6-Fluorobenzo[b]thiophen-4-yl)piperazin-1-yl)ethyl)-2-oxoquinolin-1(2H)-yl)methyl 2-pentylheptanoate]
> 200 mg/mL | C=CCCCCCCCCC(=O)N1C(=O)CCc2ccc(CCN3CCN(c4cc(F)cc5sccc45)CC3)cc21 [Compound 132, 7-(2-(4-(6-Fluorobenzo[b]thiophen-4-yl)piperazin-1-yl)ethyl)-1-(undec-10-enoyl)-3,4-dihydroquinolin-2(1H)-one]
> 200 mg/mL | CCCCCCCCCC(=O)OCOC(=O)N1C(=O)CCc2ccc(CCN3CCN(c4cc(F)cc5sccc45)CC3)cc21 [Compound 133, (Decanoyloxy)methyl 7-(2-(4-(6-fluorobenzo[b]thiophen-4-yl)piperazin-1-yl)ethyl)-2-oxo-3,4-dihydroquinoline-1(2H)-carboxylate]
> 200 mg/mL | CCCCCCCCCCCC(=O)OCn1c(=O)ccc2ccc(CCN3CCN(c4cc(F)cc5sccc45)CC3)cc21 [Compound 134, (7-(2-(4-(6-Fluorobenzo[b]thiophen-4-yl)piperazin-1-yl)ethyl)-2-oxoquinolin-1(2H)-yl)methyl dodecanoate]

From patent US20260250272A1, “N-SUBSTITUTED QUINOLINONE COMPOUND, PREPARATION METHOD THEREFOR AND USE THEREOF” (VIGONVITA LIFE SCIENCES CO., LTD., priority 2022, published 2026)
